According to patent publication US8975234B2, “Anti-bacterial infection, inflammation, and leukemia composition and use thereof” (priority 2011, dated 2015):

Tested on: K-562 cells
Test: Western blotting of apoptosis and cell cycle proteins
Type: cell-based, human
Conditions: 40 and 50 μM, 48 hours
Procedure: A total of 3 mL cell solution at the concentration of 1×10^6K-562 cells per mL was cultured in 6 cm cell culture dish in an incubator supplied with 5% CO2 at 37° C. for 30 minutes so that cells could adapt to the environment. Tellimagrandin II solutions of different concentrations were added by order so that the final concentrations are 0, 40 and 50 μM, respectively. The solution was placed in incubator with 5% CO2 at 37° C. for 48 hours. After incubation, it was centrifuged at 1,000 rpm at 4° C. for 5 minutes and rinsed by PBS once. RIPA buffer solution containing protease inhibitors was added to decompose the cells.
The solution was rapidly frozen with liquid nitrogen and unfrozen for three times to ensure that cells had been broken by the physical damages. The solution was centrifuged at 15,000 rpm at 4° C. for 30 minutes; the supernatant containing total cell protein was collected. Protein concentrations were determined by BCA protein assay. Finally, equal amounts of protein samples (40 μg) were boiled in 1× loading buffer for 3 minutes to decompose protein into primary structure for further protein gel electrophoresis (or stored at −80° C.).
SDS-PAGE 10% or 12% was selected by the desired protein molecular weight in the protein gel electrophoresis (150 V, 17 mA for 2 hour and 5 minutes). The protein was transferred from the gel to PVDF membrane using wet transfer procedure (100 V, 300 mA for 30 minutes). The membrane was blocked at room temperature for one hour in Tris-buffered saline-Tween (TBS-T) buffer solution containing 2% Bovine serum albumin (BSA) to eliminate non-specifically binding.
PVDF membrane was probed with primary antibody diluted with by the recommended amount according the manufacture in 2% BSA-TBS-T buffer solution at 4° C. for 16 to 18 hours. After the interaction completed, TBS-T buffer solution was used to rinse out the non-specifically bound primary antibody. TBS-T buffer solution was changed every 10 minutes for three times in about 30 minutes. Then, specific secondary antibody was added for interaction at room temperature for one hour. TBS-T buffer solution was used to rinse out the non-specifically bound secondary antibody. TBS-T buffer solution was changed every 10 minutes for six times in about 60 minutes. ECL System (Enhanced chemiluminescence system) was used and film was exposed to light and developed. Finally qualitative analysis was performed. […] Protein related to cell cycle regulation includes G2/M checkpoint regulators, Cyclin B1 and Cdc-25C.

Structure (SMILES): O=C(OC1O[C@@H]2COC(=O)c3cc(O)c(O)c(O)c3-c3c(cc(O)c(O)c3O)C(=O)O[C@H]2[C@H](OC(=O)c2cc(O)c(O)c(O)c2)[C@H]1OC(=O)c1cc(O)c(O)c(O)c1)c1cc(O)c(O)c(O)c1 (some centres unmarked) [Tellimagrandin II]
- Caspase-8 (inactive form): decreases
- Caspase-9, Caspase-3, and Caspase-7: activation
- Cyclin B1 and Cdc-25C (non-phosphorylated) activity: decreased
- PARP: ultimate activation
- protein of anti-apoptosis Bcl-2: decrease
